The source made the active and inactive calls. How the calls were made is not given here.
What was measured:
[1] = inhibitors of Her2 kinase expression, dose response, cell-based, AlphaScreen, CellTiter-Glo viability (AID 742); conditions: human cells, Her2 expression AlphaScreen; CTG viability; at 9.62 µM (top of the series)
[2] = tested on: human cells, Her2 expression AlphaScreen; CTG viability; experiment: as above; conditions: viability, CellTiter-Glo

## O=S(=O)(c1ccc(F)cc1)N(CCO)CC(O)Cn1c2ccccc2c2ccccc21 (stereo not drawn)
[1]
  Her2 inhibition: -33.6% (inactive)
[2]
  EC50: > 9.62 µM

## Cc1ccc(C2CC(=O)N3CN(c4ccc(Br)cc4)CSC3=C2C#N)o1 (stereo not drawn)
[1]
  Her2 inhibition: 16% (inactive)
[2]
  EC50: > 9.62 µM

## O=C(c1n[nH]c(=O)c2ccccc12)N1CCN(c2ccccc2)CC1
[1]
  Her2 inhibition: -18.2% (inactive)
[2]
  EC50: > 9.62 µM

## Oc1cccc2ccc(Nc3ccccn3)nc12
[1]
  Her2 inhibition: 31.3% (inactive)
[2]
  EC50: > 9.62 µM

## CCN(CC)C(=O)c1csc(Nc2ccc(C)cc2)n1
[1]
  Her2 inhibition: -12.9% (inactive)
[2]
  EC50: > 9.62 µM

## O=c1[nH]c(Nc2nc3ccccc3o2)nc2c1CCCC2
[1]
  Her2 inhibition: -16.5% (inactive)
[2]
  EC50: > 9.62 µM

## CCc1ccc(-c2nc(CN3CCC(C(=O)N4CCN(c5ccccc5)CC4)CC3)c(C)o2)cc1
[1]
  Her2 inhibition: -74% (inactive)
[2]
  EC50: > 9.62 µM

## CCn1c(C)cc(=S)c2ccccc21
[1]
  Her2 inhibition: -25.6% (inactive)
[2]
  EC50: > 9.62 µM

## COCc1cc(C)nc(Nc2ccc(C)c(C)c2)c1C#N
[1]
  Her2 inhibition: 20.5% (inactive)
[2]
  EC50: > 9.62 µM

## CC(C)NCC(O)Cn1c2c(c3ccccc31)CCc1c-2cnn1-c1ccccc1 (stereo not drawn)
[1]
  Her2 inhibition: 11.7% (inactive)
[2]
  EC50: > 9.62 µM

## CC1(C)CC(=O)C2=C(C1)OC1=C(C(=O)CC(C)(C)C1)C2c1ccc(O)cc1O
[1]
  Her2 inhibition: 10.8% (inactive)
[2]
  EC50: > 9.62 µM

## CCOc1ccccc1N(CC(=O)N1CCOCC1)S(=O)(=O)c1ccccc1
[1]
  Her2 inhibition: 3.98% (inactive)
[2]
  EC50: > 9.62 µM

## CN1CCN(CCCN2c3ccccc3Sc3ccc(Cl)cc32)CC1
[1]
  Her2 inhibition: -5.38% (inactive)
[2]
  EC50: > 9.62 µM

## c1ccc2cc(OCCN3CCCC3)ccc2c1
[1]
  Her2 inhibition: -36.3% (inactive)
[2]
  EC50: > 9.62 µM

## CCOc1ccc(CNc2ccc3c(c2)ncn3C)cc1
[1]
  Her2 inhibition: 8.61% (inactive)
[2]
  EC50: > 9.62 µM

## CC(C)n1c(SCc2ccc(Cl)cc2)nc2c1c(=O)[nH]c(=O)n2C
[1]
  Her2 inhibition: -14.2% (inactive)
[2]
  EC50: > 9.62 µM

## c1cnc(-c2nnc3n2CCCCC3)cn1
[1]
  Her2 inhibition: 5.42% (inactive)
[2]
  EC50: > 9.62 µM

## Cn1c(Cl)cnc1C1CC(=O)c2cc(Cl)ccc2O1 (stereo not drawn)
[1]
  Her2 inhibition: 15.6% (inactive)
[2]
  EC50: > 9.62 µM

## CCCn1c(Nc2nc3ccccc3n2C)nc2ccccc21
[1]
  Her2 inhibition: -10.1% (inactive)
[2]
  EC50: > 9.62 µM

## O=C1CC(Sc2nnnn2C2CCCCC2)C(=O)N1c1ccccc1 (stereo not drawn)
[1]
  Her2 inhibition: -12.8% (inactive)
[2]
  EC50: > 9.62 µM

## C=C(C)COc1ccc(-c2n[nH]c(C)c2-c2ccccc2)c(O)c1
[1]
  Her2 inhibition: -3.91% (inactive)
[2]
  EC50: > 9.62 µM

## CCSC1(SCC)N=C(N)C2(C#N)C(c3ccc(OC)c(OC)c3OC)C12C#N (stereo not drawn)
[1]
  Her2 inhibition: 6.24% (inactive)
[2]
  EC50: > 9.62 µM

## Cc1nn(C)c(C)c1Sc1ccc(Br)cc1
[1]
  Her2 inhibition: -6.9% (inactive)
[2]
  EC50: > 9.62 µM

## CCCCn1c(SCc2c(C)noc2C)nc2cc(S(N)(=O)=O)ccc21
[1]
  Her2 inhibition: -2.2% (inactive)
[2]
  EC50: > 9.62 µM

## O=S(=O)(CCN1CCN(C(c2ccccc2)c2ccccc2)CC1)C(F)(F)F
[1]
  Her2 inhibition: -1.03% (inactive)
[2]
  EC50: > 9.62 µM

## Cc1onc(-c2ccccc2)c1C(=O)n1nnc2ccccc21
[1]
  Her2 inhibition: -24.8% (inactive)
[2]
  EC50: > 9.62 µM

## CCN(CC)c1ccc(-c2nn3c(-c4n[nH]c5c4CCC5)nnc3s2)cc1
[1]
  Her2 inhibition: -1.69% (inactive)
[2]
  EC50: > 9.62 µM

## COCCCN1C(=O)C(O)=C(C(C)=O)C1c1cccc(F)c1 (stereo not drawn)
[1]
  Her2 inhibition: -2.16% (inactive)
[2]
  EC50: > 9.62 µM

## O=C(Nc1ccc(Cl)cc1)Nc1ccc2c(c1)N1CCN=C1S2
[1]
  Her2 inhibition: -7.78% (inactive)
[2]
  EC50: > 9.62 µM

## CC(C)(C)c1cc(C(c2cccnc2)N2CCN(CCO)CC2)cc(C(C)(C)C)c1O (stereo not drawn)
[1]
  Her2 inhibition: 7.24% (inactive)
[2]
  EC50: > 9.62 µM

## CCOc1cc(C(=O)NCCOC)ccc1OC
[1]
  Her2 inhibition: -7.59% (inactive)
[2]
  EC50: > 9.62 µM

## COc1ccc(Cl)c(Cn2c(NCc3ccco3)nc3c2c(=O)n(C)c(=O)n3C)c1
[1]
  Her2 inhibition: 0.72% (inactive)
[2]
  EC50: > 9.62 µM

## CCOc1ccc(-c2nnn(CC(=O)c3cc(OC)ccc3OC)n2)cc1
[1]
  Her2 inhibition: -22.6% (inactive)
[2]
  EC50: > 9.62 µM

## Cc1ccc(/C=C/C2=Cc3c(sc(NC(=O)CSc4n[nH]c(N)n4)c3C#N)C(C)(C)C2)o1
[1]
  Her2 inhibition: -0.68% (inactive)
[2]
  EC50: > 9.62 µM

## O=C1C2ON(c3ccccc3)C(c3cccnc3)C2C(=O)N1c1ccc(Cl)c(Cl)c1 (stereo not drawn)
[1]
  Her2 inhibition: -16.1% (inactive)
[2]
  EC50: > 9.62 µM

## CC1(C)CC(=O)NC=C(c2ccccc2)C1
[1]
  Her2 inhibition: 0.71% (inactive)
[2]
  EC50: > 9.62 µM

## COc1ccc(OCC(=O)NCc2cccnc2)cc1
[1]
  Her2 inhibition: -22.7% (inactive)
[2]
  EC50: > 9.62 µM

## COc1ccccc1C(CC(=O)Nc1nccs1)c1ccco1 (stereo not drawn)
[1]
  Her2 inhibition: 3.82% (inactive)
[2]
  EC50: > 9.62 µM

## Clc1ccc(-n2nnnc2Sc2ncnc3sccc23)cc1
[1]
  Her2 inhibition: -1.39% (inactive)
[2]
  EC50: > 9.62 µM

## CC(=O)Nc1cc(OC(C)=O)c2nonc2c1OC(C)=O
[1]
  Her2 inhibition: 22.3% (inactive)
[2]
  EC50: > 9.62 µM

## CC(C)N(Cc1nc(-c2ccccc2)no1)C(=O)CN1C(=O)c2ccccc2C1=O
[1]
  Her2 inhibition: -1.52% (inactive)
[2]
  EC50: > 9.62 µM

## COc1cccc(N2CCN(c3ncnc4c3[nH]c3ccc(F)cc34)CC2C)c1 (stereo not drawn)
[1]
  Her2 inhibition: -42.1% (inactive)
[2]
  EC50: < 0.024 µM

## CN(C)CCCN1c2ccccc2Sc2ccc(C(F)(F)F)cc21
[1]
  Her2 inhibition: 0.74% (inactive)
[2]
  EC50: > 9.62 µM

## COC(=O)Nc1ccc(S(=O)(=O)N(CCO)CC(F)(F)C(F)F)cc1
[1]
  Her2 inhibition: -11.6% (inactive)
[2]
  EC50: > 9.62 µM

## N#C/C(=C/c1ccc(N2CCCCCC2)o1)c1ccc(F)cc1
[1]
  Her2 inhibition: 4.22% (inactive)
[2]
  EC50: > 9.62 µM

## CCOc1ccccc1NC(=O)Cn1nnc(-c2ccc(OCC)c(OCC)c2)n1
[1]
  Her2 inhibition: -13.9% (inactive)
[2]
  EC50: > 9.62 µM

## Clc1cccc(-c2nnc(-c3ccccc3)o2)c1
[1]
  Her2 inhibition: 34.8% (inactive)
[2]
  EC50: < 0.024 µM

## Cc1ccc2[nH]cc(C(=O)CN3CCN(c4ccccn4)CC3)c2c1
[1]
  Her2 inhibition: -23.7% (inactive)
[2]
  EC50: > 9.62 µM

## O=c1cccc(-c2ccccc2)[nH]1
[1]
  Her2 inhibition: -24.1% (inactive)
[2]
  EC50: > 9.62 µM

## O=C(CCN1CCC(c2ccccc2)C1)c1cccs1 (stereo not drawn)
[1]
  Her2 inhibition: -8.45% (inactive)
[2]
  EC50: > 9.62 µM

## CCN(CCNC(=O)C1CCN(Cc2nc(-c3cccc(Cl)c3)oc2C)CC1)c1ccccc1
[1]
  Her2 inhibition: -54.8% (inactive)
[2]
  EC50: > 9.62 µM

## COc1ccc2oc(=O)c(-c3nnc(NCc4ccco4)s3)cc2c1
[1]
  Her2 inhibition: -2.67% (inactive)
[2]
  EC50: > 9.62 µM

## O=C1C(C2=C(O)c3ccccc3C2=O)=Nc2ccccc21
[1]
  Her2 inhibition: -1.36% (inactive)
[2]
  EC50: < 0.024 µM

## CCCS(=O)(=O)N1CCC(C(=O)N2CCC(Cc3ccccc3)CC2)CC1
[1]
  Her2 inhibition: -12.4% (inactive)
[2]
  EC50: > 9.62 µM

## COc1ccc(-n2nnc3c(SCC(=O)Nc4ccc5c(c4)OCCO5)ncnc32)cc1
[1]
  Her2 inhibition: -9.58% (inactive)
[2]
  EC50: > 9.62 µM

## N#CC(C#N)=c1ccc2c(c1)NC1(CCCCC1)N=2
[1]
  Her2 inhibition: 43.8% (inactive)
[2]
  EC50: > 9.62 µM

## Cc1cc(-c2nnc3n2N=C(c2ccc(-c4ccccc4)cc2)CS3)n[nH]1
[1]
  Her2 inhibition: -21.4% (inactive)
[2]
  EC50: > 9.62 µM

## O=C(c1ccco1)N(Cc1ccco1)c1ccc(O)cc1
[1]
  Her2 inhibition: -0.36% (inactive)
[2]
  EC50: > 9.62 µM

## COc1ccc(-c2cc(N)n(S(=O)(=O)c3c(F)c(F)c(F)c(F)c3F)n2)cc1OC
[1]
  Her2 inhibition: 48.8% (inactive)
[2]
  EC50: > 9.62 µM

## O=C(O)CCc1nn2cc(-c3ccccc3)nc2[nH]c1=O
[1]
  Her2 inhibition: -26.9% (inactive)
[2]
  EC50: > 9.62 µM

## OCCN1CCN(CCCN2c3ccccc3Sc3ccc(C(F)(F)F)cc32)CC1
[1]
  Her2 inhibition: 12.6% (inactive)
[2]
  EC50: > 9.62 µM

## CCOC(=O)C(C(C)=O)c1c(Br)c(O)c(O)c2c(C(=O)c3ccc(C)cc3)coc12 (stereo not drawn)
[1]
  Her2 inhibition: 46.1% (inactive)
[2]
  EC50: > 9.62 µM

## CC1(C)CC(=O)C2(CC3=C(CC(C)(C)CC3=O)O2)C(=O)C1
[1]
  Her2 inhibition: -2.95% (inactive)
[2]
  EC50: > 9.62 µM

## Cc1nnc(SCc2nnc(-c3ccccc3Br)o2)n1-c1ccccc1
[1]
  Her2 inhibition: -17.1% (inactive)
[2]
  EC50: > 9.62 µM

## C[C@@]1(CO)[C@H](O)CC[C@@]2(C)[C@H]1CC[C@H]1C[C@@H]3C[C@@]12CC[C@]3(O)CO
[1]
  Her2 inhibition: 1.16% (inactive)
[2]
  EC50: > 9.62 µM

## CC1=CC(C)(C)Nc2ccc(OC(=O)c3ccco3)cc21
[1]
  Her2 inhibition: 1.48% (inactive)
[2]
  EC50: > 9.62 µM

## CC(C)c1nnc(NC(=O)CCS(=O)(=O)c2nc(-c3cccs3)cc(C(F)(F)F)n2)s1
[1]
  Her2 inhibition: 16.2% (inactive)
[2]
  EC50: > 9.62 µM

## C=C(C)Cn1c(-c2ccc(OC)cc2)nc2ccccc21
[1]
  Her2 inhibition: -19.2% (inactive)
[2]
  EC50: > 9.62 µM

## O=C(Oc1ccc2c(c1)OCO2)c1cc2c(s1)CCC2
[1]
  Her2 inhibition: 41.1% (inactive)
[2]
  EC50: > 9.62 µM

## C#CCOC(=O)c1ccccc1C(=O)OCC#C
[1]
  Her2 inhibition: -22.6% (inactive)
[2]
  EC50: > 9.62 µM

## COc1ccc(CCN2CCC(Nc3nc4ccccc4n3Cc3ccc(F)cc3)CC2)cc1
[1]
  Her2 inhibition: -28.9% (inactive)
[2]
  EC50: > 9.62 µM

## CCOC(=O)CSc1nnc(-c2ccc(NS(=O)(=O)c3ccc(C)cc3)cc2)o1
[1]
  Her2 inhibition: 7.81% (inactive)
[2]
  EC50: > 9.62 µM

## O=C1c2cccc3cccc(c23)C(=O)N1c1nncs1
[1]
  Her2 inhibition: -25.5% (inactive)
[2]
  EC50: > 9.62 µM

## CCOC(=O)C(C(=O)OCC)c1cc(Br)c2noc3c2c1C(=O)c1ccccc1-3
[1]
  Her2 inhibition: 18.8% (inactive)
[2]
  EC50: > 9.62 µM

## CC(C)COC(=O)N1CC(O)CC1C(=O)O (stereo not drawn)
[1]
  Her2 inhibition: 7.84% (inactive)
[2]
  EC50: > 9.62 µM

## CCC(=O)OC1(C#CCOc2ccc(OC)cc2)CCN(C)CC1
[1]
  Her2 inhibition: -12.2% (inactive)
[2]
  EC50: > 9.62 µM

## Nc1ccc2ncccc2c1N
[1]
  Her2 inhibition: 1.77% (inactive)
[2]
  EC50: > 9.62 µM

## CCOC(=O)CC(N)c1ccc2c(c1)OCO2 (stereo not drawn)
[1]
  Her2 inhibition: -8.02% (inactive)
[2]
  EC50: > 9.62 µM

## CCCn1c(SCC(=O)Nc2cccc(C)n2)nnc1-c1ccco1
[1]
  Her2 inhibition: -2.69% (inactive)
[2]
  EC50: > 9.62 µM
